Experimental data reported in PubChem BioAssay (NCI).
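The compound was tested at five concentrations on cells cultured in 96-well plates, with a 48-hour exposure period. The concentration for 50% growth inhibition is given as GI50. TGI denotes the concentration required for complete inhibition of growth.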

Columns and labels:
Assay in all cases: NCI tumour cell line growth inhibition, 48 h
786-0 renal = test system: 786-0 renal
A498 renal = test system: A498 renal
A549 NSCLC = test system: A549 NSCLC
ACHN renal = test system: ACHN renal
BT-549 breast = test system: BT-549 breast
CAKI-1 renal = test system: CAKI-1 renal
CCRF-CEM leukemia = test system: CCRF-CEM leukemia
COLO 205 colon = test system: COLO 205 colon
DU-145 prostate = test system: DU-145 prostate
HCC-2998 colon = test system: HCC-2998 colon
HCT-116 colon = test system: HCT-116 colon
HCT-15 colon = test system: HCT-15 colon
HL-60(TB) leukemia = test system: HL-60(TB) leukemia
HOP-62 NSCLC = test system: HOP-62 NSCLC
HOP-92 NSCLC = test system: HOP-92 NSCLC
HS 578T breast = test system: HS 578T breast
HT29 colon = test system: HT29 colon
IGROV1 ovarian = test system: IGROV1 ovarian
K-562 leukemia = test system: K-562 leukemia
KM12 colon = test system: KM12 colon
LOX IMVI melanoma = test system: LOX IMVI melanoma
M14 melanoma = test system: M14 melanoma
MALME-3M melanoma = test system: MALME-3M melanoma
MCF7 breast = test system: MCF7 breast
MDA-MB-231 breast = test system: MDA-MB-231 breast
MDA-MB-435 = test system: MDA-MB-435
MOLT-4 leukemia = test system: MOLT-4 leukemia
NCI-H226 lung = test system: NCI-H226 lung
NCI-H23 lung = test system: NCI-H23 lung
NCI-H460 lung = test system: NCI-H460 lung
NCI-H522 lung = test system: NCI-H522 lung
NCI/ADR-RES ovarian = test system: NCI/ADR-RES ovarian
OVCAR-3 ovarian = test system: OVCAR-3 ovarian
OVCAR-4 ovarian = test system: OVCAR-4 ovarian
OVCAR-5 ovarian = test system: OVCAR-5 ovarian
OVCAR-8 ovarian = test system: OVCAR-8 ovarian
PC-3 prostate = test system: PC-3 prostate
RPMI-8226 leukemia = test system: RPMI-8226 leukemia
RXF 393 renal = test system: RXF 393 renal
SF-268 CNS = test system: SF-268 CNS
SF-295 CNS = test system: SF-295 CNS
SF-539 CNS = test system: SF-539 CNS
SK-MEL-2 melanoma = test system: SK-MEL-2 melanoma
SK-MEL-28 melanoma = test system: SK-MEL-28 melanoma
SK-MEL-5 melanoma = test system: SK-MEL-5 melanoma
SK-OV-3 ovarian = test system: SK-OV-3 ovarian
SN12C renal = test system: SN12C renal
SNB-19 CNS = test system: SNB-19 CNS
SNB-75 CNS = test system: SNB-75 CNS
SR leukemia = test system: SR leukemia
SW-620 colon = test system: SW-620 colon
T-47D breast = test system: T-47D breast
TK-10 renal = test system: TK-10 renal
U251 CNS = test system: U251 CNS
UACC-62 melanoma = test system: UACC-62 melanoma
UO-31 renal = test system: UO-31 renal

## O=C(Nc1ccc(Cl)cc1)Nc1nccs1
786-0 renal
  GI50: 11.1 µM
  TGI: > 100 µM
A498 renal
  GI50: 0.518 µM
  TGI: 16.9 µM
A549 NSCLC
  GI50: 0.775 µM
  TGI: > 100 µM
ACHN renal
  GI50: 2.25 µM
  TGI: 43 µM
BT-549 breast
  GI50: 8.68 µM
  TGI: 57.9 µM
CAKI-1 renal
  GI50: 2.36 µM
  TGI: 54.8 µM
CCRF-CEM leukemia
  GI50: 1.93 µM
  TGI: 62 µM
COLO 205 colon
  GI50: 0.75 µM
  TGI: 6.13 µM
DU-145 prostate
  GI50: 3.82 µM
  TGI: 71.9 µM
HCC-2998 colon
  GI50: 12.9 µM
  TGI: 45.9 µM
HCT-116 colon
  GI50: 0.49 µM
  TGI: 52.8 µM
HCT-15 colon
  GI50: 0.46 µM
  TGI: > 100 µM
HL-60(TB) leukemia
  GI50: 2.3 µM
  TGI: 10.2 µM
HOP-62 NSCLC
  GI50: 15.1 µM
  TGI: > 100 µM
HOP-92 NSCLC
  GI50: 2.14 µM
  TGI: 34 µM
HS 578T breast
  GI50: 1.33 µM
  TGI: 34.1 µM
HT29 colon
  GI50: 0.511 µM
  TGI: 27.1 µM
IGROV1 ovarian
  GI50: 1.26 µM
  TGI: > 100 µM
K-562 leukemia
  GI50: 0.5 µM
  TGI: > 100 µM
KM12 colon
  GI50: 0.491 µM
  TGI: 19.4 µM
LOX IMVI melanoma
  GI50: 0.786 µM
  TGI: > 100 µM
M14 melanoma
  GI50: 0.543 µM
  TGI: 27.5 µM
MALME-3M melanoma
  GI50: 3.37 µM
  TGI: 54.1 µM
MCF7 breast
  GI50: 0.439 µM
  TGI: > 100 µM
MDA-MB-231 breast
  GI50: 3.18 µM
  TGI: 41.5 µM
MDA-MB-435
  GI50: 0.207 µM
  TGI: 0.585 µM
MOLT-4 leukemia
  GI50: 4.8 µM
  TGI: 84.2 µM
NCI-H226 lung
  GI50: 4.46 µM
  TGI: 57 µM
NCI-H23 lung
  GI50: 11.5 µM
  TGI: > 100 µM
NCI-H460 lung
  GI50: 0.487 µM
  TGI: 57.3 µM
NCI-H522 lung
  GI50: 1.92 µM
  TGI: 14.4 µM
NCI/ADR-RES ovarian
  GI50: 0.575 µM
  TGI: 30.1 µM
OVCAR-3 ovarian
  GI50: 1.95 µM
  TGI: 7.85 µM
OVCAR-4 ovarian
  GI50: 8.38 µM
  TGI: > 100 µM
OVCAR-5 ovarian
  GI50: 12.8 µM
  TGI: > 100 µM
OVCAR-8 ovarian
  GI50: 3.39 µM
  TGI: > 100 µM
PC-3 prostate
  GI50: 2.79 µM
  TGI: 40.3 µM
RPMI-8226 leukemia
  GI50: 2.63 µM
  TGI: 16.6 µM
RXF 393 renal
  GI50: 1.49 µM
  TGI: 6.53 µM
SF-268 CNS
  GI50: 8.53 µM
  TGI: 63.1 µM
SF-295 CNS
  GI50: 2.73 µM
  TGI: 34.7 µM
SF-539 CNS
  GI50: 1.81 µM
  TGI: 6.42 µM
SK-MEL-2 melanoma
  GI50: 0.784 µM
  TGI: 43.3 µM
SK-MEL-28 melanoma
  GI50: 13.8 µM
  TGI: > 100 µM
SK-MEL-5 melanoma
  GI50: 0.514 µM
  TGI: 15.3 µM
SK-OV-3 ovarian
  GI50: 5.04 µM
  TGI: > 100 µM
SN12C renal
  GI50: 5.22 µM
  TGI: > 100 µM
SNB-19 CNS
  GI50: 3.67 µM
  TGI: > 100 µM
SNB-75 CNS
  GI50: 2.02 µM
  TGI: > 100 µM
SR leukemia
  GI50: 0.45 µM
  TGI: 62.6 µM
SW-620 colon
  GI50: 0.4 µM
  TGI: > 100 µM
T-47D breast
  GI50: 2.38 µM
  TGI: > 100 µM
TK-10 renal
  GI50: 10.2 µM
  TGI: 93.1 µM
U251 CNS
  GI50: 3.44 µM
  TGI: 26.9 µM
UACC-62 melanoma
  GI50: 0.756 µM
  TGI: 57.9 µM
UO-31 renal
  GI50: 4.29 µM
  TGI: > 100 µM
